Patent publication US20110009351A1, “SCREENING ASSAY TO IDENTIFY CORRECTORS OF PROTEIN TRAFFICKING DEFECTS” (Traffick Therepeutics Inc., priority 2007, published 2011)
“Also recorded” adds a separate entry of the source.

Assays:
Assay type in all cases: cell-based
[1] = target: T1, ΔF508-CFTR (Homo sapiens, UniProt P13569, DEL508-508); design: which was then ligated into full length pNUT-CFTR linearized using Hpa1 and Pml1; expressed in transfected cells
Outline: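 BHK cells stably expressing 3HA-tagged ΔF508-CFTR (tags in fourth extracellular loop) treated with compound at 20 μM final for 24 h at 37° C. Surface ΔF508-CFTR measured on fixed, non-permeabilised cells by anti-HA/FITC immunofluorescence (488/510 nm), relative to untreated-well background; hits retested in duplicate, intrinsically fluorescent compounds excluded.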

[2] = target: T1, ΔF508-CFTR; experiment: iodide efflux assay in BHK cells expressing ΔF508-CFTR; design: which was then ligated into full length pNUT-CFTR linearized using Hpa1 and Pml1; expressed in transfected cells; conditions: 24 hours, BHK
Protocol: Experiments were performed by hand or with a robotic liquid handling system (BioRobot 8000, Qiagen, USA) using Qiagen 4.1 software. Cells were cultured in 24-well plates until they reached confluence in order to perform parallel experiments and comparison analysis. After treatment (or not) with a test compound, medium in each well was replaced with 1 ml of iodide loading buffer (in mM: 136 NaI, 3 KNO3, 2 Ca(NO3)2, 11 glucose and 20 Hepes pH 7.4) for 1 hour at 37° C. to permit the I′ to reach equilibrium. At the beginning of each experiment, the loading buffer was removed by aspiration and cells were washed eight times with efflux buffer (same as loading buffer except that NaI was replaced with 136 mM NaNO3) to remove extracellular I^− in each well. The loss of intracellular I^− was determined by removing the medium and replacing it with fresh efflux buffer every 1 min for up to 11 min. The first four aliquots were recovered at 1-minute intervals in an empty 24-well plate and used to establish a stable baseline in efflux buffer alone. A stimulation buffer (efflux buffer containing 50 μM genistein+10 μM forskolin) was then added and sampling continued with replacement by stimulation buffer. The iodide concentration of each aliquot was determined using an iodide-sensitive electrode (Orion Research Inc., Boston, Mass., USA or Ecomet) and converted to iodide content (i.e. the amount of iodide released during the 1 min interval). Curves were constructed by plotting concentration versus time. Data are presented as means±SEM.
Iodide effluxes were performed using a robotic liquid handling system (BioRobot 8000, Qiagen, Valencia, Calif.) and Qiagen 4.1 software. Cells were cultured to confluence in 24-well plates. After treatment (or not) with a test compound, the medium in each well was replaced with 1 ml of iodide loading buffer: 136 mM NaI, 3 mM KNO3, 2 mM Ca(NO3)2, 11 mM glucose, 20 mM Hepes, pH 7.4 with NaOH) and incubated for 1 h at 37° C. At the beginning of each experiment, the loading buffer was removed by aspiration and cells were washed eight times with 300 μl efflux buffer (same as loading buffer except that NaI was replaced with 136 mM NaNO3) to remove extracellular I^−. Efflux was measured by replacing the medium with 300 μl fresh efflux buffer at 1 min intervals for up to 11 min. The first four aliquots were used to establish a stable baseline, then buffer containing 10 μM forskolin+50 μM genistein was used to stimulate CFTR activity. Iodide concentration was measured in each aliquot (300 μl) using an iodide-sensitive electrode (Orion Research Inc., Boston, Mass.). Relative iodide efflux rate was calculated using the difference between maximum (peak) iodide concentration during stimulation and minimum iodide concentration before stimulation (in μM/min). […]

[3] = target: T1, ΔF508-CFTR; experiment: iodide efflux assay in CFBE41o− airway epithelial cells; design: expressed in transfected cells; host or cells: CFBE41o- (ΔF508/ΔF508) transduced with ΔF508-CFTR, TranzVector lentivirus, provided by J. P. Clancy; conditions: 10 μM pretreatment
Protocol: Experiments were performed by hand or with a robotic liquid handling system (BioRobot 8000, Qiagen, USA) using Qiagen 4.1 software. Cells were cultured in 24-well plates until they reached confluence in order to perform parallel experiments and comparison analysis. After treatment (or not) with a test compound, medium in each well was replaced with 1 ml of iodide loading buffer (in mM: 136 NaI, 3 KNO3, 2 Ca(NO3)2, 11 glucose and 20 Hepes pH 7.4) for 1 hour at 37° C. to permit the I′ to reach equilibrium. […] The loss of intracellular I^− was determined by removing the medium and replacing it with fresh efflux buffer every 1 min for up to 11 min. […] The iodide concentration of each aliquot was determined using an iodide-sensitive electrode (Orion Research Inc., Boston, Mass., USA or Ecomet) and converted to iodide content (i.e. the amount of iodide released during the 1 min interval). […]
Iodide effluxes were performed using a robotic liquid handling system (BioRobot 8000, Qiagen, Valencia, Calif.) and Qiagen 4.1 software. […] Efflux was measured by replacing the medium with 300 μl fresh efflux buffer at 1 min intervals for up to 11 min. […] Iodide concentration was measured in each aliquot (300 μl) using an iodide-sensitive electrode (Orion Research Inc., Boston, Mass.). […]

[4] = target: T1, ΔF508-CFTR; experiment: immunoblot and densitometry of mature band C, BHK cells expressing ΔF508-CFTR; design: which was then ligated into full length pNUT-CFTR linearized using Hpa1 and Pml1; expressed in transfected cells
Protocol: (§1) Cell lysates were quantitated by Bradford assay (BioRad) and separated by SDS-PAGE (6% polyacrylamide gels) and analyzed by Western blotting. Western blots were blocked using 5% skimmed milk in PBS, then probed overnight at 4° C. with a primary anti-CFTR antibody at a dilution of 1:1000 monoclonal mouse antibody (clone M3A7, Chemicon). The blots were washed four times in PBS before the addition of the secondary HRP-conjugated anti-mouse antibody, at a dilution of 1:5000 (Amersham) for one hour at room temperature. The blots were washed five times in PBS and probed for chemiluminescence (Pierce). All samples were run with equal protein loading as determined using the Bradford assay (Biorad). Densitometry of the immunoblots was performed using the ImageJ program (National Institutes of Health).
Total protein was quantified in cell lysates using the Bradford assay (BioRad, Hercules, Calif.), separated using SDS-PAGE (6% polyacrylamide gels), and analyzed by Western blotting as described previously (Robert et al., 2007). Western blots were blocked with 5% skimmed milk in PBS and probed overnight at 4° C. with a monoclonal primary anti-CFTR antibody (clone M3A7, Chemicon, Temecula, Calif.) diluted 1:1000. The blots were washed four times in PBS before adding the secondary HRP-conjugated anti-mouse antibody at a dilution of 1:5000 (Amersham, Piscataway, N.J.) for one hour at room temperature, then washed again five times in PBS and visualized using chemiluminescence (Pierce, Rockford, Ill.). The relative intensity of each CFTR glycoform (band B or band C) was estimated by densitometry using the ImageJ software and reported as a percentage of the total CFTR in the same lane (i.e. B+C).

[5] = target: T1, ΔF508-CFTR; experiment: short-circuit current (Isc) across CFBE41o− monolayers in Ussing chambers; design: expressed in transfected cells; host or cells: CFBE41o- (ΔF508/ΔF508) transduced with ΔF508-CFTR, TranzVector lentivirus, provided by J. P. Clancy; conditions: 10 μM, 24 h
Protocol: Short-circuit current (Isc) was measured across monolayers in modified Ussing chambers. 1×10^6 CFBE41o^− cells were seeded onto 12-mm fibronectin-coated Snapwell inserts (Corning Incorporated, Life Sciences, New-York, N.Y.) and the apical medium was removed after 24 h. Transepithelial resistance was monitored using an EVOM epithelial voltohmmeter (World Precision Instruments, Sarasota, Fla.) and cells were used when the transepithelial resistance was 300-400 ohms·cm^2. In some experiments, F508del-CFBE41o^− monolayers were incubated at 29° C. or treated with glafenine at 37° C. for 24 h before being mounted in EasyMount chambers and voltage clamped using a VCCMC6 multichannel current-voltage clamp (Physiologic Instruments, San Diego, Calif.). The apical membrane conductance was functionally isolated by permeabilizing the basolateral membrane with 200 μg/ml nystatin and imposing an apical-to-basolateral Cl^− gradient. For these experiments the basolateral bathing solution contained (in mM) 1.2 NaCl, 115 Na-gluconate, 25 NaHCO3, 1.2 MgCl2, 4 CaCl2, 2.4, KH2PO4, 1.24 K2HPO4, 10 glucose (pH 7.4 with NaOH). The CaCl2 concentration was increased to 4 mM to compensate for the chelation of calcium by gluconate. The apical bathing solution contained (in mM) 115 NaCl, 25 NaHCO3, 1.2 MgCl2, 1.2 CaCl2, 2.4 KH2PO4, 1.24 K2HPO4, 10 mannitol (pH 7.4 with NaOH). […]

[6] = target: T2, F508del CFTR (Homo sapiens, UniProt P13569, DEL508-508); experiment: YFP fluorescence quenching functional assay (iodide influx), HEK293 cells with F508del CFTR and halide sensitive YFP; conditions: 10 μM, 24 h
T2 construct: expressed in transfected cells; host or cells: HEK293 Griptite cells stably expressing F508del CFTR, transiently transfected with halide-sensitive eYFP
T2 sequence (P13569 with tags, fused parts or gaps DEL508-508): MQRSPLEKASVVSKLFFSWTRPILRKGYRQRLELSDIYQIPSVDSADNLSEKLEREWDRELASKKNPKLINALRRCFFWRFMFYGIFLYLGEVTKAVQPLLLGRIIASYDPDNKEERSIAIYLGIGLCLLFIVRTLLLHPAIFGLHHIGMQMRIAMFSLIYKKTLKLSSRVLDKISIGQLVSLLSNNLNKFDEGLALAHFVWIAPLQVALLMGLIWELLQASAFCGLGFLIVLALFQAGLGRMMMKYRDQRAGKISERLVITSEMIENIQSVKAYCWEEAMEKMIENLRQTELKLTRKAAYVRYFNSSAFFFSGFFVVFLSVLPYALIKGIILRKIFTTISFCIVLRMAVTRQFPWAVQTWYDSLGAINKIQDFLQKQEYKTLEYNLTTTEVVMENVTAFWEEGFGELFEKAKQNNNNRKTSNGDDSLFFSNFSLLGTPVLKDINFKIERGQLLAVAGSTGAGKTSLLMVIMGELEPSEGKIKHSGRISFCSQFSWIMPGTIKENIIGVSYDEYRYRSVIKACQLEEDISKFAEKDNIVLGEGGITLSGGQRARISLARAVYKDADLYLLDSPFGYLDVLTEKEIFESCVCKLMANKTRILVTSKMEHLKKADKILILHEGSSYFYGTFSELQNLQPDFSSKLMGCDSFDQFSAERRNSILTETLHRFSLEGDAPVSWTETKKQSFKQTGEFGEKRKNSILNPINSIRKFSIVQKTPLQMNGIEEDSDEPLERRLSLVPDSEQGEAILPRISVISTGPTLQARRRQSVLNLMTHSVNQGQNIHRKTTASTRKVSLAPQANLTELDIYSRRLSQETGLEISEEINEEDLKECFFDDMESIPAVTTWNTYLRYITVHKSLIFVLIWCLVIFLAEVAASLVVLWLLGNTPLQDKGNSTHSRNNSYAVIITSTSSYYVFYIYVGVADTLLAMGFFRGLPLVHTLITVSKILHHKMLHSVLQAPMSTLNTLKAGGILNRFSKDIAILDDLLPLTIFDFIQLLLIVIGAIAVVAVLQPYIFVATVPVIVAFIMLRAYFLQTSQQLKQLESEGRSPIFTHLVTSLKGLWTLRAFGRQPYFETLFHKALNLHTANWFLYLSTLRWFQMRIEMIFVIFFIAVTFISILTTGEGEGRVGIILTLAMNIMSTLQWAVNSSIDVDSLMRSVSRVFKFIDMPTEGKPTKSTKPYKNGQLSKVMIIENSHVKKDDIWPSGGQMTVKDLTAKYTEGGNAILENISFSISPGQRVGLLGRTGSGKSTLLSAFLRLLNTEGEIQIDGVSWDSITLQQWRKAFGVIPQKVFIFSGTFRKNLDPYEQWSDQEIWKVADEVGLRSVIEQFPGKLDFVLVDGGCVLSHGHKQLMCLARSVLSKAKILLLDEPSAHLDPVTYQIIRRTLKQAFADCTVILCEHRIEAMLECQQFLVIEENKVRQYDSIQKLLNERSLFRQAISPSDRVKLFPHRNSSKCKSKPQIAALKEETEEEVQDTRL
Outline: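 HEK293 Griptite cells stably expressing F508del CFTR, transiently transfected with halide-sensitive eYFP, treated 24 h with 10 μM compound in triplicate, then stimulated 20 min with 25 μM forskolin, 45 μM IBMX and 50 μM genistein. YFP quench after 50 mM iodide imaged 15 times over 40 s on 150-300 cells/well.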

[7] = target: T3, wt CFTR (Homo sapiens, UniProt P13569); experiment: three stage ELISA of CFTR surface expression, BHK cells expressing wt CFTR; conditions: 10% glycerol, cells expressing wild-type CFTR
T3 construct: which was then ligated into full length pNUT-CFTR linearized using Hpa1 and Pml1; expressed in transfected cells
T3 sequence (P13569 whole entry): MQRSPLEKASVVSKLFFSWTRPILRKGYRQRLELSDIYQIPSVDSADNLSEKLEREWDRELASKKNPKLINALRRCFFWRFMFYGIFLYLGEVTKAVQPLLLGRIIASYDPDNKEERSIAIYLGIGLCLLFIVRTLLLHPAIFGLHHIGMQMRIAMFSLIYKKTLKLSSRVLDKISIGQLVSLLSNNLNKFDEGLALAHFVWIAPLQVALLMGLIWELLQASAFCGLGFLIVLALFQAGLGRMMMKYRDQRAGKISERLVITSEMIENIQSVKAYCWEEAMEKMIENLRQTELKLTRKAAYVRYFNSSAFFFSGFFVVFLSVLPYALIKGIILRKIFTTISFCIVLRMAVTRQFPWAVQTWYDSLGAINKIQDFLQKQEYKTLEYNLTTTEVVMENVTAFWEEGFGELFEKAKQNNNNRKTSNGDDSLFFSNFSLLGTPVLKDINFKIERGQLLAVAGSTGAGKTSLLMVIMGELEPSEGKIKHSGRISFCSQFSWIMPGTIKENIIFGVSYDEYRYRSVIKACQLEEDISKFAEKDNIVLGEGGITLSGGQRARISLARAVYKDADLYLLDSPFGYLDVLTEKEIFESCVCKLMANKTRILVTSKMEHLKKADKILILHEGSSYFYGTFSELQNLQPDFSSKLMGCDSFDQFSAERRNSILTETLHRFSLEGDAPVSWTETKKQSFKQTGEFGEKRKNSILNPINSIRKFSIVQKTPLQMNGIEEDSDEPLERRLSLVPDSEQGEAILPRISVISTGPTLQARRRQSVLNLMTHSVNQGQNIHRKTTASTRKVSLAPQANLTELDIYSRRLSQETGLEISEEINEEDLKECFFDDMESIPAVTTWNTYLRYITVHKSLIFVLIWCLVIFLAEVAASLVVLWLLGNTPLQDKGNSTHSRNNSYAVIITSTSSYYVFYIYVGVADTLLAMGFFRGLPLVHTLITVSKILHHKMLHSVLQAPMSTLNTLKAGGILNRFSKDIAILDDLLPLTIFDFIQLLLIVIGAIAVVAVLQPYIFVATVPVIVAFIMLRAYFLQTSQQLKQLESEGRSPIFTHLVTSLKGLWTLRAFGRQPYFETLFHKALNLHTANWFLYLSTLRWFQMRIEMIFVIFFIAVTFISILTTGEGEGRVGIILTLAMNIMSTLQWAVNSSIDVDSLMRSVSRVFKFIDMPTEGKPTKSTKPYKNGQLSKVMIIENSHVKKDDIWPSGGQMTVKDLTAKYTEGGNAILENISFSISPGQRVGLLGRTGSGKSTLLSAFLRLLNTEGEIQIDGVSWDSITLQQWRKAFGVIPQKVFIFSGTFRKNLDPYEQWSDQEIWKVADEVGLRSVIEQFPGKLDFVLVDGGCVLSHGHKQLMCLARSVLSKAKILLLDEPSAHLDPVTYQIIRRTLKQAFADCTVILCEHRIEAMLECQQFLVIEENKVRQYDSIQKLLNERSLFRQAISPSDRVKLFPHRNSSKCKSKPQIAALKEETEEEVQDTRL
Protocol: (§2) Cells were screened for CFTR surface expression using a three stage ELISA system (Pierce Inc., USA). Briefly, BHK cells expressing 3HA-tagged ΔF508-CFTR were seeded in 96-well plates (Corning, USA) at 30,000 cells per well and incubated for 24 h at 37° C. Each well was treated with a test compound for 24 h, then cells were fixed in 4% paraformaldehyde solution and washed with PBS containing 0.1% bovine serum albumin and 0.05% tween-20. Cells were blocked for 1 h in solution containing 3% normal horse serum in PBS at room temperature. […] After washing four more times, the cells were exposed to 3,3′,5,5′ tetramethylbenzidine (Pierce Inc., USA) for 15 min, sulphuric acid (2M) was added, and absorbance was measured at 450 nm (Power-Wavex Bio-tek Instruments).
(§3) To determine if cell surface expression of CFTR could be quantified in a high-throughput screen using this assay, cells expressing tagged versions of wt or ΔF508-CFTR were seeded in 96-well plates, treated with 10% glycerol and monitored as light absorbance using an enzyme-linked assay system. As expected, untreated ΔF508-CFTR cells had low absorbance since they expressed little CFTR on their cell surface under control conditions (FIG. 3A).

[8] = target: T3, wt CFTR; experiment: immunoblot and densitometry of mature band C, BHK cells expressing wt CFTR; conditions: 10% glycerol
Protocol: as §1

[9] = target: T1, ΔF508-CFTR; experiment: three stage ELISA of CFTR surface expression, BHK cells expressing ΔF508-CFTR; design: which was then ligated into full length pNUT-CFTR linearized using Hpa1 and Pml1; expressed in transfected cells; conditions: 10% glycerol or 1 mM sodium 4-phenylbutyrate, 24 hours
Protocol: as §2, §3

T1 sequence (P13569 with tags, fused parts or gaps DEL508-508): as the sequence (P13569 with tags, fused parts or gaps DEL508-508) above

## CCCc1nn(C)c2c(=O)[nH]c(-c3cc(S(=O)(=O)N4CCN(C)CC4)ccc3OCC)nc12 [sildenafil]
[1]; Microsource Discovery library, medium and weak hits, 20 μM, 24 hours
  signal in the trafficking assay: consistently elevated signal
[2]; 10 μM pretreatment
  cAMP-stimulated iodide efflux: did not restore a strong cAMP-stimulated iodide efflux responses; also recorded: did not produce significant iodide efflux
[2]; 1 mM
  cAMP-stimulated iodide efflux: strong cAMP-stimulated iodide efflux was detected; also recorded: function was detected
[3]
  iodide efflux: negative result
[4]; after sildenafil treatment
  increase in the intensity of the mature band C: 30%

## COc1ccc(S(=O)(=O)N2CCN(C(C)c3nc(OC4CCCCC4)c4ccccc4n3)CC2)cc1 (stereo not shown) [VRT325]
[5]
  forskolin+genistein-stimulated Isc: not different from vehicle controls
[1]; 10 μM, 24 h, compared with vehicle alone
  ΔF508-CFTR surface expression increase, normalized to BHK cells expressing wild-type CFTR: 36%
[6]
  functional correction in YFP quenching assay: somewhat larger YFP-quenching response

## OCC(O)CO [glycerol]
[7]
  increase of plasma membrane signal: 2.5 fold
[8]
  increase of band C by densitometry: 1.5 fold
[1]; 10% glycerol, ΔF508-CFTR cells
  fluorescence increase in comparison with the untreated cells: 2.7 fold
[4]; 10% glycerol, ΔF508-CFTR
  increase of band C by densitometry: 37 fold
[9]
  plasma membrane signal (absorbance), words: increased the plasma membrane signal
